Assay results published in ChEMBL document CHEMBL4359854, “Repurposing mosloflavone/5,6,7-trimethoxyflavone-resveratrol hybrids: Discovery of novel p38-α MAPK inhibitors as potent interceptors of macrophage-dependent production of proinflammatory mediators” (Eur J Med Chem, 2019).
Activity calls are given as the source filed them. No cut-off for these calls is given here.

Assays:
RAW264.7 [1] = test: Anti-inflammatory activity in mouse RAW264.7 cells assessed as inhibition of LPS-induced PGE2 production at 10 nM preincubated for 1 hr followed by LPS addition and measured after 24 hrs by EIA relative to control; assay type: functional
RAW264.7 [2] = test: Anti-inflammatory activity in mouse RAW264.7 cells assessed as remaining LPS-induced NO production at 40 uM preincubated for 1 hr followed by LPS addition and measured after 24 hrs by Griess reagent-based assay relative to control; assay type: functional
RAW264.7 [3] = test: Anti-inflammatory activity in mouse RAW264.7 cells assessed as inhibition of LPS-induced PGE2 production preincubated for 1 hr followed by LPS addition and measured after 24 hrs by EIA; assay type: functional, cell-based
[4] = biological target: Mitogen-activated protein kinase 14 (Mus musculus) (UniProt P47811); test: Inhibition of p38alpha MAPK in LPS-stimulated mouse RAW264.7 cells assessed as reduction in MK2 phosphorylation at 5 uM incubated for 120 mins by Western blot analysis; assay type: cell-based
RAW264.7 [5] = test: Anti-inflammatory activity in mouse RAW264.7 cells assessed as inhibition of LPS-induced PGE2 production at 1 uM preincubated for 1 hr followed by LPS addition and measured after 24 hrs by EIA relative to control; assay type: functional
RAW264.7 [6] = test: Anti-inflammatory activity in mouse RAW264.7 cells assessed as inhibition of LPS-induced PGE2 production at 40 nM preincubated for 1 hr followed by LPS addition and measured after 24 hrs by EIA; assay type: functional, cell-based
RAW264.7 [7] = test: Anti-inflammatory activity in mouse RAW264.7 cells assessed as inhibition of LPS-induced IL-1beta production at 1 uM preincubated for 1 hr followed by LPS addition and measured after 24 hrs by EIA relative to control; assay type: functional
RAW264.7 [8] = test: Anti-inflammatory activity in mouse RAW264.7 cells assessed as inhibition of LPS-induced IL-6 production at 1 uM preincubated for 1 hr followed by LPS addition and measured after 24 hrs by EIA relative to control; assay type: functional
RAW264.7 [9] = test: Anti-inflammatory activity in mouse RAW264.7 cells assessed as inhibition of LPS-induced NO production at 1 uM preincubated for 1 hr followed by LPS addition and measured after 24 hrs by Griess reagent-based assay relative to control; assay type: functional
[10] = Cytotoxicity against LPS-induced mouse RAW264.7 cells assessed as cell viability at 1 uM incubated for 24 hrs by MTT assay relative to control; assay type: cell-based; details: LPS-induced RAW264.7 cells, read-out: Activity
RAW264.7 [11] = test: Anti-inflammatory activity in mouse RAW264.7 cells assessed as inhibition of LPS-induced TNFalpha production at 1 uM preincubated for 1 hr followed by LPS addition and measured after 24 hrs by EIA relative to control; assay type: functional
RAW264.7 [12] = test: Anti-inflammatory activity in mouse RAW264.7 cells assessed as inhibition of LPS-induced NO production preincubated for 1 hr followed by LPS addition and measured after 24 hrs by Griess reagent-based assay; assay type: functional, cell-based
RAW264.7 [13] = test: Anti-inflammatory activity in mouse RAW264.7 cells assessed as inhibition of LPS-induced TNFalpha production preincubated for 1 hr followed by LPS addition and measured after 24 hrs by EIA; assay type: functional, cell-based
[14] = biological target: Mitogen-activated protein kinase 14 (Mus musculus) (UniProt P47811); test: Inhibition of p38alpha MAPK in LPS-stimulated mouse RAW264.7 cells assessed as reduction in p38alpha MAPK phosphorylation at 2 uM incubated for 60 mins by Western blot analysis; assay type: cell-based
RAW264.7 [15] = test: Anti-inflammatory activity in mouse RAW264.7 cells assessed as inhibition of LPS-induced IL-6 production at 1 to 5 uM preincubated for 1 hr followed by LPS addition and measured after 24 hrs by EIA; assay type: functional, cell-based
[16] = biological target: Mitogen-activated protein kinase 14 (Mus musculus) (UniProt P47811); test: Inhibition of p38alpha MAPK in LPS-stimulated mouse RAW264.7 cells assessed as reduction in p38alpha MAPK phosphorylation incubated for 60 mins by Western blot analysis; assay type: cell-based
[17] = biological target: T1, Mitogen-activated protein kinase 14 (Mus musculus, UniProt P47811); test: Inhibition of p38alpha MAPK in unstimulated mouse RAW264.7 cells assessed as reduction in p38alpha MAPK phosphorylation at 4 uM incubated for 60 mins by Western blot analysis; assay type: cell-based; details: RAW264.7, mouse, 1 h
RAW264.7 [18] = test: Anti-inflammatory activity in mouse RAW264.7 cells assessed as inhibition of LPS-induced IL-6 production preincubated for 1 hr followed by LPS addition and measured after 24 hrs by EIA; assay type: functional, cell-based
RAW264.7 [19] = test: Effect on IL-6 production in mouse RAW264.7 cells assessed as increase in IL-6 production up to 5 uM measured after 1 hr by EIA; assay type: ADME, cell-based; details: raw264.7, 1 h
RAW264.7 [20] = test: Effect on NO production in mouse RAW264.7 cells assessed as inhibition of NO production at 2 to 5 uM incubated for 24 hrs by Griess reagent-based assay; assay type: cell-based; details: raw264.7, 24 h
[21] = biological target: T1, Mitogen-activated protein kinase 14; test: Inhibition of p38alpha MAPK in unstimulated mouse RAW264.7 cells assessed as reduction in p38alpha MAPK phosphorylation at 2 uM incubated for 60 mins by Western blot analysis; assay type: cell-based; details: raw264.7, 1 h
RAW264.7 [22] = test: Effect on TNF-alpha production in mouse RAW264.7 cells assessed as increase in TNFalpha production at up to 5 uM measured after 1 hr by EIA; assay type: ADME, cell-based; details: raw264.7, 1 h
RAW264.7 [23] = test: Anti-inflammatory activity in mouse RAW264.7 cells assessed as inhibition of LPS-induced NO production at 0.5 uM preincubated for 1 hr followed by LPS addition and measured after 24 hrs by Griess reagent-based assay; assay type: functional, cell-based
RAW264.7 [24] = test: Anti-inflammatory activity in mouse RAW264.7 cells assessed as inhibition of LPS-induced PGE2 production at 0.2 uM preincubated for 1 hr followed by LPS addition and measured after 24 hrs by EIA; assay type: functional, cell-based
RAW264.7 [25] = test: Anti-inflammatory activity in mouse RAW264.7 cells assessed as inhibition of LPS-induced TNFalpha production at 0.5 uM preincubated for 1 hr followed by LPS addition and measured after 24 hrs by EIA; assay type: functional, cell-based
[26] = biological target: Mitogen-activated protein kinase 14 (Mus musculus) (UniProt P47811); test: Inhibition of p38alpha MAPK in LPS-stimulated mouse RAW264.7 cells assessed as reduction in p38alpha MAPK phosphorylation at 4 uM incubated for 60 mins by Western blot analysis; assay type: cell-based

Chain of Mitogen-activated protein kinase 14 (Mus musculus) (P47811 whole entry): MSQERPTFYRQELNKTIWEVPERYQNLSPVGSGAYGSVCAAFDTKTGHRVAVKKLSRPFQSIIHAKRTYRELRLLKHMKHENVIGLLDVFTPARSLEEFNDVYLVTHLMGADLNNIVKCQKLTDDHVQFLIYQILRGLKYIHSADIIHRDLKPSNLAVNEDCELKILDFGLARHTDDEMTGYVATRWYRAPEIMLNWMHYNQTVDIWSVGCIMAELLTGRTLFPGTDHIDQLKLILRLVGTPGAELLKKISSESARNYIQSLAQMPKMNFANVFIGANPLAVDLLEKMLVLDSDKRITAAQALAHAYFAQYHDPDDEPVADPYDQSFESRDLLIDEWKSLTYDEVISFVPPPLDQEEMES
T1 sequence (P47811 whole entry): as above

For CS(=O)(=O)Nc1ccc([N+](=O)[O-])cc1OC1CCCCC1 [NS-398], which inhibition at 0.01 µM (RAW264.7 [1]) is on record?
Its inhibition at 0.01 µM is 58%.

For CC(=N)NCCCC[C@H](N)C(=O)O [L-NIL], which Activity (RAW264.7 [2]) is on record?
The Activity was 29 - 35%.

Which results are given for COc1ccccc1C(=O)Nc1cccc(-c2cc(=O)c3c(O)c(OC)c(OC)cc3o2)c1?
IC50 (RAW264.7 [3]): 310 nM; inhibition (RAW264.7 [3]): Dose-dependent effect; inhibition [4]: Active; inhibition at 1 µM (RAW264.7 [5]): 82.8%; inhibition (RAW264.7 [6]): Active; inhibition at 1 µM (RAW264.7 [7]): 41.3%; inhibition at 1 µM (RAW264.7 [8]): -9.4%; inhibition at 1 µM (RAW264.7 [9]): 2.62%; viability at 24 h, 1 µM [10]: 90.9%; inhibition at 1 µM (RAW264.7 [11]): -9.74%

What does the source list for COc1cc(NC(=O)c2cccc(-c3cc(=O)c4c(O)c(OC)c(OC)cc4o3)c2)cc(OC)c1OC?
IC50 (RAW264.7 [3]): 980 nM; inhibition (RAW264.7 [3]): Dose-dependent effect; IC50 (RAW264.7 [12]): 2110 nM; inhibition (RAW264.7 [12]): Dose-dependent effect; inhibition (RAW264.7 [13]): Dose-dependent effect; inhibition [14]: Active; inhibition (RAW264.7 [15]): Active; inhibition [16]: Dose-dependent effect; inhibition at 1 µM (RAW264.7 [5]): 35.7%; inhibition at 4 µM [17]: 100%; inhibition (RAW264.7 [18]): Dose-dependent effect; inhibition at 1 µM (RAW264.7 [7]): 41%; Activity (RAW264.7 [19]): Non-Toxic; inhibition at 1 µM (RAW264.7 [8]): 53.5%; Activity (RAW264.7 [20]): Non-Toxic; inhibition (INH) [21]: Active; Activity (RAW264.7 [22]): Non-Toxic; inhibition at 1 µM (RAW264.7 [9]): 44.8%; inhibition (RAW264.7 [23]): Active; inhibition (RAW264.7 [24]): inactive; viability at 24 h, 1 µM [10]: 144%; inhibition (RAW264.7 [25]): Active; inhibition [26]: 100%; inhibition at 1 µM (RAW264.7 [11]): 29.4%
